Experiments:
12-LO = target: T1, 12-LO (Homo sapiens, UniProt P18054); assay: 12-LO product formation in A23187/AA-activated PMNL; assay type: cell-based
T1 construct: 12-HETE (12-LO product from platelets in PMNL preparations); endogenous in cells; host or cells: platelets contaminating human PMNL preparations
T1 sequence (P18054 1-663): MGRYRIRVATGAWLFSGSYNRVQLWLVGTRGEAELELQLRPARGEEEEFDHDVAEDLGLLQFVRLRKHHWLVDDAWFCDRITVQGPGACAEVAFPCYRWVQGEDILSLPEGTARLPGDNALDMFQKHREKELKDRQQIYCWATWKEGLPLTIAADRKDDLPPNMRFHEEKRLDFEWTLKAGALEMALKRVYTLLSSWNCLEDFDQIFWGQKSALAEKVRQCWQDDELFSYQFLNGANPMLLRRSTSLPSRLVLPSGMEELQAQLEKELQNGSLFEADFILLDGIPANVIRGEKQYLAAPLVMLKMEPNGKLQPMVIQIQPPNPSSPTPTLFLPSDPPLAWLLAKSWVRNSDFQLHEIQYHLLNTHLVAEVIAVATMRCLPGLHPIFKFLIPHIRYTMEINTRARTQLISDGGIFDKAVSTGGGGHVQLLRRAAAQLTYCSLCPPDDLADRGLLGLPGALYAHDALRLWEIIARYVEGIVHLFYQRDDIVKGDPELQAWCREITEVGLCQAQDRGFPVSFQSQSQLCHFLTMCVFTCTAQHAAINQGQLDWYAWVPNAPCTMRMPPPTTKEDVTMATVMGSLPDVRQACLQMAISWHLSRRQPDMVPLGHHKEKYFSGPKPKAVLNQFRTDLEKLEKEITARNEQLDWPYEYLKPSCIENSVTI
Description: (§1) Cells were washed and medium was exchanged. Freshly isolated PMNL (1 × 10^7) and stably transfected HEK-293 (1 × 10^6) cells were suspended in PBS pH 7.4 containing 1 mg/ml glucose and 1 mM CaCl2. […] A23187- and A23187/AA-treated PMNL and A23187/AA-treated HEK-293 (5-LO_wt), HEK-293 (5-LO_3W) and HEK-293 (5-LO_Arg101Asp) cells produced 135 ± 21, 636 ± 112, 300 ± 59, 133 ± 29, 55 ± 9 ng 5-LO products, respectively. PMNL synthesized 29 ± 6 ng 12-HETE and 97 ± 23 ng 15-HETE when challenged with A23187/AA. 5-LO products from monocytes were analyzed by UPLC-MS/MS.

15-LO = 15-LO product formation in A23187/AA-activated PMNL; assay type: cell-based, human; details: at 3 µM; mean ± s.e.m., n = 3; n.i. no inhibition
Description: as §1

OVA-sensitized mice = assay: Airway hyper-reactivity in OVA-sensitized mice; assay type: in vivo, mouse; details: 10 mg/kg i.p. at days 0 and 7; day 21
Description: BALB/c mice were sensitized to OVA, and bronchial reactivity and pulmonary LTC4 levels were measured. On days 0 and 7, α-T-13′-COOH (4a; 10 mg/kg, i.p.) or vehicle (4% DMSO in saline; 0.5 ml) were administered 30 min before injection of OVA (100 µg; Sigma Aldrich) which was adsorbed to aluminum hydroxide gel (3.3 mg; Sigma Aldrich). Mice were sacrificed on day 21, and bronchi were collected. Bronchial rings of 1–2 mm length were cut and placed in organ baths mounted to isometric force transducers (Type 7006, AD Instruments, Ugo Basile, Comerio, Italy) and connected to a Powerlab 800 (AD Instruments). Rings were initially stretched until a resting tension of 0.5 g was reached and allowed to equilibrate for at least 30 min. In each experiment, bronchial rings were challenged with carbachol (10^−6 M) until the response was reproducible. Bronchial reactivity was then assessed from a cumulative concentration–response curve to carbachol (1 × 10^−8 − 3 × 10^−5 M). To determine pulmonary LTC4 levels, lungs were isolated and homogenized in PBS pH 7.4 (100 mg tissue/ml) prior to detection of LTC4 by enzyme immunoassay (Cayman Chemicals).

5-LO = target: T2, 5-LO (Homo sapiens, UniProt P09917); assay: Activity of purified human recombinant 5-LO (cell-free); assay type: biochemical; parameters: made in house; host or cells: E. coli Bl21 (DE3)
T2 sequence (P09917 1-674): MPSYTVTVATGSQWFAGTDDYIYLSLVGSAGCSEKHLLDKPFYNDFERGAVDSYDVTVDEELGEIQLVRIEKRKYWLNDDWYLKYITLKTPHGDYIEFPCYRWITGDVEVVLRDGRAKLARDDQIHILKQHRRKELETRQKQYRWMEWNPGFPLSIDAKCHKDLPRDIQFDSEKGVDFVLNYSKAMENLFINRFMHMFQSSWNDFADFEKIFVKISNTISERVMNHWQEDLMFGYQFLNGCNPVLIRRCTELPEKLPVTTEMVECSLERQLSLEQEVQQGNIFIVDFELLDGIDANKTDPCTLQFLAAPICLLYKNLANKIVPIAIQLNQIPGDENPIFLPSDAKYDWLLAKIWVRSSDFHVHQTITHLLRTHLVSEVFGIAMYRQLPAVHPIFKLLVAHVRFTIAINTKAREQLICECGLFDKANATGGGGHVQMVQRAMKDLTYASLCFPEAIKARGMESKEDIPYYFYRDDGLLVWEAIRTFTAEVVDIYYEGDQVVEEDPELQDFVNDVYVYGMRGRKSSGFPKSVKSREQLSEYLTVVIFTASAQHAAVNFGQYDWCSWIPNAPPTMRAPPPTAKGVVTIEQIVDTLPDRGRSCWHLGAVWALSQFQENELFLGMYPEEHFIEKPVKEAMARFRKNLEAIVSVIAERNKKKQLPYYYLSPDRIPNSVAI
Description: E. coli Bl21 (DE3) cells were transformed with pT3–5LO plasmid to express human recombinant 5-LO, which was purified by affinity chromatography on an ATP-agarose column. In brief, E. coli was lysed in 50 mM triethanolamine/HCl pH 8.0 plus EDTA (5 mM), soybean trypsin inhibitor (60 µg/ml), phenylmethanesulphonyl fluoride (1 mM), dithiothreitol (1 mM), and lysozyme (1 mg/ml). After sonication (3 × 15 s), the homogenate was centrifuged at 10,000 × g for 15 min and the supernatant again at 40,000 × g for 70 min at 4 °C. The supernatant was applied to an ATP-agarose column (Sigma-Aldrich), and the column was washed with (i) PBS pH 7.4, 1 mM EDTA, (ii) 50 mM phosphate buffer pH 7.4, 0.5 M NaCl, 1 mM EDTA, and (iii) 50 mM phosphate buffer pH 7.4, 1 mM EDTA. 5-LO was eluted with 50 mM phosphate buffer pH 7.4, 1 mM EDTA, 20 mM ATP.
Purified 5-LO (0.5 µg) in PBS pH 7.4 containing EDTA (1 mM) and ATP (1 mM) was pre-incubated with LCMs for 10 min at 4 °C, pre-warmed for 30 s at 37 °C and 5-LO product formation was started by addition of AA (Sigma-Aldrich; 20 µM if not indicated otherwise) plus CaCl2 (2 mM). […] AA was added after incubation for 5 min on ice.

## Cc1c(C)c2c(c(C)c1O)CC[C@@](C)(CCCC(C)CCCC(C)CCCC(C)C(=O)O)O2 (stereo partly drawn) [4a, 13-((2R)-6-hydroxy-2,5,7,8-tetramethylchroman-2-yl)-2,6,10-trimethyltridecanoic acid]
12-LO
  IC50: > 3000 nM
12-LO; at 3 µM, mean ± s.e.m., n = 3, n.i. no inhibition
  12-LO product formation/PMNL, residual activity: 55.3 ± 1.7 % of control
15-LO
  15-LO product formation/PMNL, residual activity: 52.6 ± 20.3 % of control
OVA-sensitized mice
  OVA-induced bronchial hyper-reactivity to carbachol: significantly inhibited
  pulmonary LTC4 levels: lowered pulmonary LTC4 to basal levels
5-LO
  IC50: 270 ± 10 nM

From publication PMC6148290, “Endogenous metabolites of vitamin E limit inflammation by targeting 5-lipoxygenase” (Nature Communications, 2018)
